Results reported in patent US20060205637A1, “Fluoro-alkyl-cyclopeptide derivatives having anti-integrin activity” (Sigma-Tau Industrie Farmaceutiche Riunite S.p.A., priority 2002, published 2006).
Read-outs that look alike come from different tables or passages of the source.

Assays:
[1] = test system: bovine microvascular endothelial cells (BMEC)
Method: Microvascular endothelial cells from bovine adrenal glands (bovine microvascular endothelial cells—BMEC) were isolated from animals that had just been sacrificed and were stored in ice up to their arrival in the laboratory. In sterile conditions, the glands were washed in a solution of betadine for 5 minutes and then in 2 liters of sterile PBS. The glands were then cut with a disposable sterile lancet into fragments of approximately 2 mm and transferred to polystyrene Falcon tubes containing PBS (30 ml per gland). After centrifuging at 600 rpm in a centrifuge cooled to +4° C., the supernatant was decanted. The pellet was resuspended 1:2 with a 0.12% solution of collagenase A (Boehringer Mannheim) and incubated at 37° C. for 2 hours under stirring. After subsequent filtration on filters (Sigma), first of 200, and then 100 mesh, the supernatant was added to a solution of DMEM containing 15% FBS to inhibit the action of the collagenase A. The solution was centrifuged at 1000 rpm at room temperature and the precipitate resuspended in DMEM medium containing 20% FBS, 50 μg/ml of bovine brain extract (BBE), 50 μg/ml of heparin (Sigma), 0.5% v/v gentamicin (Sigma), and 1% v/v L-glutamine. The cells were seeded on Petri dishes gelatinised with 1% gelatin (Sigma porcine gelatin). At confluence, the cells were characterised with endothelial markers as Factor VIII.

[2] = test system: Human melanoma MeWo cells; assay: Cell adhesion assay on vitronectin, MeWo; type: cell-based; conditions: inhibition of cell adhesion to human vitronectin, 0.1 to 100 μM; read-out: MeWo IC50 ± SD
Method: Human melanoma MeWo cells from the American Type Culture Collection (ATCC) were kept in culture in complete Eagle Minimal Essential Medium (EMEM) containing 10% FCS, 2 mM L-glutamine and 50 μg/ml gentamicin.
(§1) 96-well plates were pretreated with 5 μg/ml of human vitronectin (Cal-biochem) for 12 hours at +4° C. BMEC or MeWo cells were detached with trypsin-EDTA, counted and plated on vitronectin substrate. The molecules were assayed at scalar concentrations ranging from 0.1 to 100 μM and co-incubated with the cells left to adhere. […] The adhereing cells were fixed with a 4% paraformaldehyde solution for 10 minutes at room temperature. The cells were then stained with a 1% toluidine blue solution for 10 minutes at room temperature. After staining, the cells were washed in double-distilled water, dried and solubilised with a 1% SDS solution. The cells were then quantified by means of absorbance reading on a Victor multilabel plate counter (Wal-lac) at 600 nm.
(§2) The evaluation parameter for the activity of the molecules was the value IC50±SD (μM).

integrin αvβ3 = molecular target: T1, integrin αvβ3 (Homo sapiens, UniProt P05106+P06756); assay: Binding to integrin αvβ3 receptors ((125I) Echistatin displacement); conditions: for IC50: 0.05 nM (125I) Echistatin, 3-hour incubation, plate coated with 0.5 μg/ml integrin, read-out: αvβ3 IC50 ± SD
T1 construct: purchased Chemicon CC1020
T1 sequence (P06756 31-889 limits assumed): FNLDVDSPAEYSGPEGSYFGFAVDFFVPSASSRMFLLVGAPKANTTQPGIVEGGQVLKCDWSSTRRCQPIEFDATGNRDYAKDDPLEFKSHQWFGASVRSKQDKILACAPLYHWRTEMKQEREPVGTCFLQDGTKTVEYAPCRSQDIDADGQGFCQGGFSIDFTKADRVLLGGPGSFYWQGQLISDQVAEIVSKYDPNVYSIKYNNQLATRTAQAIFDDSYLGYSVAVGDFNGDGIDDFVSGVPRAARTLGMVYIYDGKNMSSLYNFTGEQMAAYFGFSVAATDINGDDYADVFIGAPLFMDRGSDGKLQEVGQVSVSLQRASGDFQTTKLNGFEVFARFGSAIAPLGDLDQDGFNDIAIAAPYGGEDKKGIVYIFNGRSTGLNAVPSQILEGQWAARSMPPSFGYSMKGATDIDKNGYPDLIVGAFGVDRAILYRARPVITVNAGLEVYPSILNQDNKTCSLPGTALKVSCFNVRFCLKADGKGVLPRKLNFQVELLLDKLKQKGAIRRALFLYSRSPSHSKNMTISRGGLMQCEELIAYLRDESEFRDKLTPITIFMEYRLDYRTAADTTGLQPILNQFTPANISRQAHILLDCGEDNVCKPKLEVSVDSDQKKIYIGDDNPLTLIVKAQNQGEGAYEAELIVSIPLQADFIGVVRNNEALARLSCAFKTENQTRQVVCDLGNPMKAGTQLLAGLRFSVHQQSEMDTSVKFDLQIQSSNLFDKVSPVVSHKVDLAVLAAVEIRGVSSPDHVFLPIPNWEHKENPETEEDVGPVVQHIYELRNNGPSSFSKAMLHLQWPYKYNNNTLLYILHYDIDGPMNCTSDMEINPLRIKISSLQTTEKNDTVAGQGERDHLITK
T1 sequence (P06756 891-1048 partner limits assumed): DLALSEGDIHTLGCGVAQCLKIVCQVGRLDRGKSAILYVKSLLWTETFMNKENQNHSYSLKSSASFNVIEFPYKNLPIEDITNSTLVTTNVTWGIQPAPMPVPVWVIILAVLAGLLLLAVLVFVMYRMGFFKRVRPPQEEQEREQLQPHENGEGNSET
T1 sequence (P05106 27-788): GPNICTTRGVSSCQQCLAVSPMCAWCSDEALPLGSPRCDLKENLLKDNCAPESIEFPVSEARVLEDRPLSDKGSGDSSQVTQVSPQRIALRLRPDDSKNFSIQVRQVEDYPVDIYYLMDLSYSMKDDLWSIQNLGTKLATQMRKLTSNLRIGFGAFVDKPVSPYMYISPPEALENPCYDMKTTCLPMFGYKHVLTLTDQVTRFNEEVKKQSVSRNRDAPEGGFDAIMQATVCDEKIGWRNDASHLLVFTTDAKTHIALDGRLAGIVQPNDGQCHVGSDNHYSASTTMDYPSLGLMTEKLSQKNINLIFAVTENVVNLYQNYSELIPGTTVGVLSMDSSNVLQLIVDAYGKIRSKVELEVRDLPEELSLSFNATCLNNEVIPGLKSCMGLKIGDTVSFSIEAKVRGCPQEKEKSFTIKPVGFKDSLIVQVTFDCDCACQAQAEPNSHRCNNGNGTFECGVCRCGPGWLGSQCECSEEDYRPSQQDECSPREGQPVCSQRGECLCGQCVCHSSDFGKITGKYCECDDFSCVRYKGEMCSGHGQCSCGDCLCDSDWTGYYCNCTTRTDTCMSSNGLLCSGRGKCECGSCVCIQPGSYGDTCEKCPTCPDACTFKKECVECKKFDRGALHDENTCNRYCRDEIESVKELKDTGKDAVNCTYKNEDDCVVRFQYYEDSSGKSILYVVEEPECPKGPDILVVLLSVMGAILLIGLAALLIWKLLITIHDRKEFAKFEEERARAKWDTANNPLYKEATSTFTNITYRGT
Method: 96-well plates were subjected overnight to coating with 0.5 μg/ml of integrin αvβ3 (Chemicon, cat. CC1020). On the next day, the wells were washed and incubation was performed with 0.05 nM of (^125I) Echistatin (Amersham, cat. IM304) in the absence or presence of compounds according to the invention. After a 3-hour incubation and a series of washings, the integrin from each well bound to the radioactive substance was solubilised with NaOH 2N, and the radioactivity was then measured using a gamma counter. Non-specific binding, to be subtracted from all samples, was determined in the presence of Echistatin 1 μM.
(§3) The affinity of the compounds according to the present invention for vitronectin receptors was expressed as the IC50±SD value (nM) which is a parameter elaborated using “ALLFIT” software.

integrin αvβ5 = molecular target: T2, integrin αvβ5 (Homo sapiens, UniProt P06756+P18084); assay: Binding to integrin αvβ5 receptors ((125I) Echistatin displacement); conditions: for IC50: 0.05 nM (125I) Echistatin, plate coated with 1 μg/ml integrin, read-out: αvβ5 IC50 ± SD
T2 construct: purchased Chemicon CC1022
T2 sequence (P06756 31-889 limits assumed): as the sequence (P06756 31-889 limits assumed) above
T2 sequence (P06756 891-1048 partner limits assumed): as the sequence (P06756 891-1048 partner limits assumed) above
T2 sequence (P18084 24-799): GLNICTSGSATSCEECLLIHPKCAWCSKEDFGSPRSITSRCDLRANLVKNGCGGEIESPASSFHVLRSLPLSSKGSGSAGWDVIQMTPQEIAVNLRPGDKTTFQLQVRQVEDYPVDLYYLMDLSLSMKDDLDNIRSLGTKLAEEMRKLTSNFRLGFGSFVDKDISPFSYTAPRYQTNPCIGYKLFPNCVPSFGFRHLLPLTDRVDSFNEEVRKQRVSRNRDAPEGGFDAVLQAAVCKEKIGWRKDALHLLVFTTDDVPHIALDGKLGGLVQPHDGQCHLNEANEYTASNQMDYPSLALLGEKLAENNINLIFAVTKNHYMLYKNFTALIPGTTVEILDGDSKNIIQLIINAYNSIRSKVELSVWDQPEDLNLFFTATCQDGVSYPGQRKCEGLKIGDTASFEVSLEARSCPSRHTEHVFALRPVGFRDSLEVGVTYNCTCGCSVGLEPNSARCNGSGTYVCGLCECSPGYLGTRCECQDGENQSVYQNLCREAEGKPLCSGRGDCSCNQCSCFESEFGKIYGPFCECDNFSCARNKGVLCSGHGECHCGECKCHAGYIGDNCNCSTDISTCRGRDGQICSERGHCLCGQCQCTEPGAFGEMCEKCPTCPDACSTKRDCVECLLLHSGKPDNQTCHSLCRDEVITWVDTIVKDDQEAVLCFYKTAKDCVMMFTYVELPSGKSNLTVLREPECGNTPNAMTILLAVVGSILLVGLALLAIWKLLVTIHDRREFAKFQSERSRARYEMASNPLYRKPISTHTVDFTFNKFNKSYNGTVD
Method: On the next day, the wells were washed and incubation was performed with 0.05 nM of(^125I) Echistatin (Amersham, cat. IM304) in the absence or presence of compounds according to the invention. The process then proceeded as described in the previous case.
as §3

[3] = test system: SK-LMS-1 human leiomyosarcoma cells; assay: Cell adhesion assay on vitronectin, SK-LMS-1; type: cell-based; conditions: inhibition of cell adhesion to human vitronectin, 0.1 to 100 μM; read-out: SK-LMS1 IC50 ± SD
Method: SK-LMS-1 human leiomyosarcoma cells (ATCC) were grown in EMEM supplemented with 10% FCS, 2 mM L-glutamine and 50 μg/ml gentamicin.
as §1, §2

Row | Molecule | IC50 [1] | IC50 [2] | IC50 (integrin αvβ3) | IC50 (integrin αvβ5) | other results
1 | N=C(N)NCCC[C@@H]1NC(=O)C(Cc2ccccc2)(C(F)(F)F)NC(=O)[C@@H](Cc2ccccc2)NC(=O)[C@H](CC(=O)O)NC(=O)CNC1=O (single isomer, unassigned) [ST1930, C(Arg-Gly-Asp-D-Phe-(R or S)-Tfm-Phe)] | 8.9 ± 0.4 µM | 6.9 ± 1.3 µM |  |  | 
2 | CC(C)[C@@H]1NC(=O)[C@@H](Cc2ccccc2)NC(=O)C(CC(=O)O)(C(F)(F)F)NC(=O)CNC(=O)[C@H](CCCNC(=N)N)NC1=O (single isomer, unassigned) [ST2189, c(Arg-Gly-(R or S)-Tfm-Asp-D-Phe-Val)] |  |  | > 10 µM | > 10 µM | 
3 | CC(C)[C@@H]1NC(=O)[C@@H](Cc2ccccc2)NC(=O)C(CC(=O)O)(C(F)(F)F)NC(=O)CNC(=O)[C@H](CCCNC(=N)N)NC1=O (single isomer, unassigned) [ST2190, c(Arg-Gly-(R or S)-Tfm-Asp-D-Phe-Val)] |  |  | > 10 µM | > 10 µM | 
4 | CC(C)[C@@H]1NC(=O)C(Cc2ccccc2)(C(F)(F)F)NC(=O)[C@H](CC(=O)O)NC(=O)CNC(=O)[C@H](CCCNC(=N)N)NC1=O (single isomer, unassigned) [ST2191, c(Arg-Gly-Asp-(R o S)-Tfm-Phe-Val)] | 18.8 ± 4.4 µM | 21.9 ± 2.5 µM | 0.237 ± 0.064 µM | 0.01 ± 0.0019 µM | 
5 | CC(C)[C@@H]1NC(=O)C(Cc2ccccc2)(C(F)(F)F)NC(=O)[C@H](CC(=O)O)NC(=O)CNC(=O)[C@H](CCCNC(=N)N)NC1=O (single isomer, unassigned) [ST2192, c(Arg-Gly-Asp-(R o S)-Tfm-Phe-Val)] | > 100 µM |  | 1.02 ± 0.348 µM | 0.0727 ± 0.0038 µM | 
6 | CC(C)C1(C(F)(F)F)NC(=O)[C@@H](Cc2ccccc2)NC(=O)[C@H](CC(=O)O)NC(=O)CNC(=O)[C@H](CCCNC(=N)N)NC1=O (single isomer, unassigned) [ST2409, c(Arg-Gly-Asp-D-Phe-(R or S)-Tfm-Val)] | 12.5 ± 1.5 µM |  |  |  | IC50 [3]: 15.9 ± 1.6 µM
7 | CC(C)C1(C(F)(F)F)NC(=O)[C@@H](Cc2ccccc2)NC(=O)[C@H](CC(=O)O)NC(=O)CNC(=O)[C@H](CCCNC(=N)N)NC1=O (single isomer, unassigned) [ST2410, c(Arg-Gly-Asp-D-Phe-(R or S)-Tfm-Val)] | 77.6 ± 7.2 µM |  |  |  | IC50 [3]: > 100 µM
8 | CN1C(=O)[C@@H](Cc2ccccc2)NC(=O)[C@H](CC(=O)O)NC(=O)CNC(=O)[C@H](CCCNC(=N)N)NC(=O)C1(Cc1ccccc1)C(F)(F)F (single isomer, unassigned) [ST2552, c(Arg-Gly-Asp-D-Phe-(R or S)—N-Me-Tfm-Phe)] | > 100 µM | 0.33 ± 0.05 µM |  |  | binding affinity for vitronectine receptor αvβ3 (in words) (integrin αvβ3): high binding affinity; binding affinity for vitronectine receptor αvβ5 (in words) (integrin αvβ5): high binding affinity
9 | c(Arg-Gly-Asp-D-Phe-(R,S)-Dfm-Phe) [ST1932] |  | 13.9 ± 4.3 µM | 0.332 ± 0.101 µM | 0.0055 ± 0.0008 µM | IC50 ([1]; read-out: BMEC IC50 ± SD, inhibition of cell adhesion to human vitronectin, 0.1 to 100 μM): 14.2 ± 1 µM
